System: Acetic Acid Induced Colitis
Experiment: Inhibition of Acetic Acid Induced Colitis
Type: in vivo, Male Sprague-Dawley rats
Settings: rat; 30 mg/kg oral, 2 h before 2 ml of 2.5% acetic acid intracolonic enema, second dose 6 h after enema; colon lesions scored 0-4 twenty four hours later vs vehicle
Experimental: As noted above, the present invention provides a method of treating inflammatory bowel disease in mammals.
Male Sprague-Dawley rats from Charles River Laboratories, Portage, Mich. (weight approximately 250 g) were dosed orally with test compound (30 mg/kg) or vehicle (control). Two hours after dosing, each animal received 2 ml of a 2.5% acetic acid intracolonic enema via a cannula, the tip of which was placed 8 cm above the anal verge. This concentration of acetic acid produced a severe inflammatory response in the colon characterized by rectal bleeding, diarrhea, epithelial erosions and destructions of crypts and gland cells. Six hours from the enema the test animals were then given a second dose of test compound or vehicle. Twenty four hours later the test and control animals were killed and the distal ten centimeters of the colon were removed and opened longitudinally. The tissue lesions contained within the removed, opened, section of colon were scored by three independent blinded observers on a scale of 0 to 4 (zero=normal, four=worst inflammation). In each test group 5-7 rats were used. Test results from animals given test compound dissolved in vehicle were compared with test results from animals given vehicle alone in order to determine the percentage of lesion inhibition attributable to the test compound.

SMILES	% Inhibition (percentage of lesion inhibition) [%]
CC(C)(C)c1cc(CC(S)C(=O)O)cc(C(C)(C)C)c1O (stereo not shown) [3-[3,5-bis(1,1-dimethylethyl)-4-hydroxyphenyl]-2-mercaptopropanoic acid]	18
COC(=O)c1ccc(CN2CSC(Cc3cc(C(C)(C)C)c(O)c(C(C)(C)C)c3)C2=O)cc1 (stereo not shown) [5-[[3,5-bis(1,1-dimethylethyl)-4-hydroxyphenyl]methyl]-3-(carbomethoxybenzyl)-4-thiazolidinone]	11
C[C@H](c1ccccc1)N1CS[C@H](Cc2cc(C(C)(C)C)c(O)c(C(C)(C)C)c2)C1=O [(3αR,5R)-5-[[3,5-bis(1,1-dimethylethyl)-4-hydroxyphenyl]methyl]-3-(1-phenylethyl)-4-thiazolidinone]	30
C[C@H](c1ccccc1)N1CS[C@@H](Cc2cc(C(C)(C)C)c(O)c(C(C)(C)C)c2)C1=O [(3αR, 5S)-5-[[3,5-bis (1,1-dimethylethyl)-4-hydroxyphenyl]methyl]-3-(1-phenylethyl)-4-thiazolidinone]	36
